From publication PMC9029893 (International Journal of Molecular Sciences, 2022)

Key:
[1] = test system: HUVEC cells; test: Glucose utilization assay (2-NBDG uptake); format: cell-based, human; conditions: 24 h, then insulin and 2-NBDG
Method: HUVEC were seeded at a density of 20,000 cells per well in 48-well plates, and were cultured in standard conditions for 24 h (medium EGM-2; volume 0.2 mL). Following this, compounds 1–8 were added at concentrations of 0.1 and 0.3 mM, and the HUVECs were incubated for another 24 h. Cells treated with ᴅ-glucose (final concentration in a sample 0.1 mM) were used as positive controls. On the following day, the cells were rinsed with PBS (Biomed Lublin, Lublin, Poland) and cultured for two hours in glucose-free DMEM medium supplemented with 1% BSA (bovine serum albumin, Sigma, St. Louis, MO, USA). Then, the cells were co-treated with insulin (final concentration 0.0001 mM) for 30 min. Afterwards, the medium was discarded and the cells were treated with 2-NBDG (final concentration 0.05 mM) for 30 min, followed by removal of the solutions of each well. The cells were washed twice with 100 µL PBS, and lysed using 1% Triton X-100 solution in PBS. The fluorescence was recorded using a microplate reader (Biotek, Instruments, Winooski, VT, USA) at 480/530 nm.
The concentration of intracellular 2-NBDG was calculated using a calibration curve obtained using 2-NBDG at concentrations ranging from 0.0001 to 0.025 mM in lysis buffer. The results are presented as mean ± SD, n = 4–6. The coefficient of variation for the assay was calculated (CV = 2.2%, n = 8).

[2] = test system: HUVEC cells; test: HUVEC migration, wound-healing assay (JuLI Stage); format: cell-based, human
Method: The effects of compounds 1–5 on HUVEC migration were determined using the JuLI™ Stage system (NanoEntek, Seoul, Korea): a real-time cell history recorder allowing for live cell imaging and analysis. The procedure for the migration experiments has been published elsewhere in more detail. Concisely, HUVECs were seeded at a density of 10,000 cells per well on 96-well plates and incubated at standard conditions for 24 h. Following this, a wound was made with a scratcher (NanoEntek, Seoul, Korea). The cells were then rinsed with 100 μL of fresh EGM2 medium, and treated with biguanides 1–5 at the concentrations of 0.3 and 1.0 mM. The cells were incubated and monitored continuously every 10 min for 36 h at 37 °C, 5% CO2. Analysis of obtained images of cell migration, and measurements of the width of the scratch area were performed using dedicated software (NanoEntek, Seoul, Korea). The results were presented as mean ± SD, n = 4–8. The CV for the method was estimated as 14.2–24.4%, depending on the time point (n = 8).

[3] = test system: HUVEC cells; conditions: cited from earlier work
[4] = test system: AoSMC cells; conditions: cited from earlier work
[5] = test system: HUVEC cells; conditions: 0.006–1.5 mM; cited from earlier work
[6] = test system: tissue plasminogen activator (t-PA) release from HUVEC; conditions: cited from earlier work
[7] = test system: clot formation and fibrinolysis in human citrate plasma; conditions: over the entire concentration range; cited from earlier work
[8] = test system: HUVEC cells; test: HUVEC integrity in RTCA-DP system (normalized cell index); format: cell-based, human
Method: The effects of sulfonamides 1–8 on the integrity and barrier properties of HUVEC were examined in real-time using a cell electric impedance monitoring system (Real-Time Cell Analyzer; Roche & ACEA Biosciences, Santa Clara, CA, USA), which is based on tracking electrical impedance signals. Any changes in cell status, adhesion, and morphology are expressed by parameter Cell Index (CI). The experimental protocol has been described previously. Briefly, the cells were seeded at a density of 15,000 cells per well on E-16 plates (Roche & ACEA Biosciences, Santa Clara, CA, USA), and cultured until the cells achieved plateau phase. Then, the medium was discarded from each well, and the solutions of the test compounds dissolved in cell culturing medium (100 μL) or pure medium (100 μL, control) were added. The measurements were then carried out for 48 h. The results are presented as mean ± SD of ‘normalized cell index’ (nCI), which is calculated by the division of a CI value at a certain time point by the CI value at a reference time point. The experiments were conducted in multiplicate (n = 4–6). The method was validated and the coefficient of variability (CV) was calculated as 9.17%–15.2%, depending on the measured time point (n = 6).

[9] = test system: HUVEC cells; test: WST-1 cell viability assay, HUVEC; conditions: Homo sapiens, HUVEC, 24 h, read-out: Viability-IC50, HUVEC cells
Method: (§1) HUVEC and AoSMC viability were tested using the WST-1 cell viability assay (Takara Bio Europe, Saint-Germain-en-Laye, France). […] Briefly, HUVEC and AoSMC were seeded at densities of 7500 and 5000 cells per well on 96-well plates. The cells were cultivated for up to 24 h to achieve 70% confluency, and subsequently treated with tested compounds diluted in medium (1 + 9; v = 100 μL) or pure medium (control). The plates were incubated at 37 °C (5% CO2) for the next 24 h. Then, the cells were rinsed with 100 μL culture medium, and WST-1 reagent diluted in medium (100 μL) was added; the plates were then incubated again (37 °C, 5% CO2) for another 90 min. The absorbance was measured at 450 nm (iMARK, Bio-Rad, Hercules, CA, USA). The experiments were performed in multiplicate (n = 8) and the results were presented as mean ± SD. The cell viability was expressed as a percentage of the control samples, which constituted 100% viability. […] The variability coefficient of the method was estimated (CV(HUVEC) = 8.94%, n = 8; CV(AoSMC) = 5.84%, n = 10).

[10] = test system: AoSMC cells; test: WST-1 cell viability assay, AoSMC; conditions: Homo sapiens, 24 h, read-out: Viability-IC50, AoSMC cells
Method: as §1

Row | SMILES | Glucose uptake (intracellular 2-NBDG) ([1]; 0.1 mM) | Glucose uptake (intracellular 2-NBDG) ([1]; 0.3 mM) | normalized Cell Index (nCI) ([8]; 0.3 mM, 3 hours) | normalized Cell Index (nCI) ([8]; 0.3 mM, 6 hours) | normalized Cell Index (nCI) ([8]; 0.3 mM, 12 hours) | normalized Cell Index (nCI) ([8]; 0.3 mM, 24 hours) | normalized Cell Index (nCI) ([8]; 0.3 mM, 36 hours) | normalized Cell Index (nCI) ([8]; 1.0 mM, 3 hours) | normalized Cell Index (nCI) ([8]; 1.0 mM, 6 hours) | normalized Cell Index (nCI) ([8]; 1.0 mM, 12 hours) | normalized Cell Index (nCI) ([8]; 1.0 mM, 24 hours) | normalized Cell Index (nCI) ([8]; 1.0 mM, 36 hours) | IC50 [9] | IC50 [10] | further results
1 | OC[C@H]1OC(O)[C@H](O)[C@@H](O)[C@@H]1O (stereo partly drawn) [D-glucose, reference compound] | 0.0014 ± 0.0001 mM | – | – | – | – | – | – | – | – | – | – | – | – | – | –
2 | CN(C)C(=N)N=C(N)N [Metformin, dimethyl biguanide, reference compound] | 0.0146 ± 0.0009 mM | 0.0165 ± 0.0006 mM | – | – | – | – | – | – | – | – | – | – | – | – | wound width ([2]; 0.3 mM, 6 hours): 570.1 ± 119.9 µm; wound width ([2]; 0.3 mM, 12 hours): 467.8 ± 106.5 µm; wound width ([2]; 0.3 mM, 18 hours): 412.1 ± 121.8 µm; wound width ([2]; 0.3 mM, 24 hours): 405.0 ± 120.7 µm; wound width ([2]; 0.3 mM, Start): 728.6 ± 62.5 µm; wound width ([2]; 1.0 mM, 6 hours): 565.4 ± 31.5 µm; wound width ([2]; 1.0 mM, 12 hours): 495.7 ± 20.0 µm; wound width ([2]; 1.0 mM, 18 hours): 482.7 ± 10.0 µm; wound width ([2]; 1.0 mM, 24 hours): 419.8 ± 42.3 µm; wound width ([2]; 1.0 mM, Start): 670.4 ± 29.2 µm; effect on viability and morphology of HUVEC cells [3]: not affect; effect on viability and morphology of AoSMC cells [4]: not affect; effect on integrity and adherence of HUVEC cells [5]: not found to affect; effect on t-PA release [6]: significantly elevate; effect on overall potential of clot formation and fibrinolysis (CLAUC) [7]: did not affect
3 | CN(C)C(=N)N=C(N)NS(=O)(=O)c1ccc(C#N)cc1 [Compound 8] | 0.0131 ± 0.0009 mM | 0.0138 ± 0.0015 mM | 0.312 ± 0.087 | 0.461 ± 0.015 | 0.416 ± 0.062 | 0.321 ± 0.038 | 0.198 ± 0.055 | 0.006 ± 0.004 | 0.029 ± 0.006 | 0.021 ± 0.004 | 0.001 ± 0.001 | 0.001 ± 0.001 | 791 ± 130 µM | 1.57 ± 0.14 mM | –
4 | CN(C)C(=N)N=C(N)NS(=O)(=O)c1ccccc1C#N [Compound 6] | 0.0128 ± 0.0007 mM | 0.0129 ± 0.0007 mM | 0.317 ± 0.050 | 0.424 ± 0.053 | 0.388 ± 0.07 | 0.280 ± 0.018 | 0.111 ± 0.026 | 0.010 ± 0.003 | 0.016 ± 0.005 | 0.019 ± 0.005 | 0.013 ± 0.003 | 0.009 ± 0.003 | 461 ± 130 µM | 1.68 ± 0.21 mM | –
5 | CN(C)C(=N)N=C(N)NS(=O)(=O)c1cccc(C#N)c1 [Compound 7] | 0.0131 ± 0.0013 mM | 0.0139 ± 0.001 mM | 0.283 ± 0.050 | 0.367 ± 0.027 | 0.333 ± 0.030 | 0.255 ± 0.26 | 0.094 ± 0.014 | 0.013 ± 0.004 | 0.018 ± 0.001 | 0.020 ± 0.001 | 0.016 ± 0.002 | 0.013 ± 0.003 | 304 ± 120 µM | 1.89 ± 0.16 mM | –
